These results are taken from patent publication US20200392192A1 (priority 2018, published 2020).

Read-outs that look alike come from different tables or passages of the source. Some results are limits rather than exact numbers.

Data set [1] is described as follows: in vitro. To be noted: human.
The subject of data set [2] is HUH7-ZikaPRVABC59. The experiment in a line: microbe, parasite or virus in culture. It counts as cell-based. To be noted: Zika virus.
The test system of data set [3] is HCV Replicon. As to the kind of experiment: microbe, parasite or virus in culture. The class given is cell-based. As to conditions: Hepatitis C virus.
Data set [4] in a line: in vitro. To be noted: human. This is another data set of the same source.
Data set [5] is described as follows: in vitro.
Data set [6] relates to E. coli.
Data set [7] relates to protein synthesis. As to conditions: read-out: IC50 protein synthesis inhibition; cited from earlier work.
For data set [8], the system named is CEM-SS/HIVRF. It counts as cell-based, HIV1.
Data set [9] has as its system CEM-SS.

A word on the EC50: it is the concentration giving half of the maximal effect. By IC50 is commonly meant the point on the concentration scale where inhibition reaches its midpoint.

In data set [1], `Nc1ccn([C@@H]2CS[C@H](CO)O2)c(=O)n1` [3TC, Lamivudine] came in with a CC50 greater than 10000 nM.
For `CC(C)OC(=O)[C@H](C)N[P@](=O)(OC[C@H]1O[C@@H](n2ccc(=O)[nH]c2=O)[C@](C)(F)[C@@H]1O)Oc1ccccc1` [Sofosbuvir], the EC50 was 2090 nM in data set [2] and 50 nM in data set [3]. Besides, the CC50 was greater than 10000 nM in [4] and greater than 1000 nM in data set [5].
In the case of PAP1, the “increased toxicity to E. coli compared to PAPS1” value in data set [6] is greater than 10 fold. Besides, in data set [7], the IC50 is 0.29 nM.
`Cc1cn([C@H]2C[C@H](N=[N+]=[N-])[C@@H](CO)O2)c(=O)[nH]c1=O` [AZT] came in with a concentration giving a half-maximal response (EC50) in [8] of 0.8 nM. This compound also yielded a CC50 in data set [9] greater than 1000 nM.
